# Several values for one entry are separate records, joined by “and”; a condition that tells them apart may be missing. Equal entries are not always repeated.
# Experiments:
# barnyard grass = test: Greenhouse test of weed control effect, combined action evaluated by Gowing method; format: in vivo; settings: single component
# Description: (§1) Embodiment 1 The synergistic effects of the compound contained with component A and component B is conducted in greenhouse in the present invention, and the component A takes A-3, A-4 and A-5 compounds in the compound table 1 of the general formula I as examples.
# (§2) The synergistic effects of the composition on the weeds is defined through greenhouse test.
# (§3) A weed culture method is: respectively planting weed seeds of piemarker and barnyard grass quantitatively in a paper cup with a diameter of 7 cm and containing nutrient soil; after planting, covering soil, pressing and watering; and then culturing in a greenhouse. The grass weeds grow to 5-7 leaf stages; the broadleaf weeds grow to 6-8 leaf stages; pre-emergence and post-emergence treatment are conducted with three times repeats. The weeds are placed in the greenhouse after treatment when the leaf without water dried naturally in air, and cultured with normal method. According to the inhibited condition or dying condition of the weeds, after treatment 30 days, visual inspection of the control effect is conducted (see Table 2-Table 7).
# (§4) A herbicide formulation preparing method: all test samples are technical dissolved by a mixed solvent of acetone and dimethylformyl (1:2, V/V) firstly; then 1‰ of Tween 80 water is used to prepare mother liquor of a certain concentration; and then processing solutions of different doses are prepared according to test schemes.
# (§5) The present invention adopts a Gowing method for evaluating the combined action of the proposed composition.
# (§6) X—the weed control effect when the dosage of the component A of the herbicide is P;
# (§7) Y—the weed control effect when the dosage of the component B of the herbicide is Q;
# (§8) E0—the theoretical control effect when the dosage of the component A of the herbicide is P+the theoretical control effect when the dosage of the component B of the herbicide is Q;
# (§9) E—the measured control effect after the component A of the herbicide and the component B of the herbicide are mixed in the above proportion.
# (§10) When E−E0>10%, the synergy is achieved; when E−E0<−10%, antagonism is achieved; when the value of E−E0 is between ±10%, the addition effect is achieved.
# piemarker = test: as above; format: in vivo; settings: single component
# Description: as §1, §2, §3, §4, §5, §6, §7, §8, §9, §10
# [1] = dose 7.5 ga.i./hm^2, visual inspection 30 days after treatment
# [2] = dose 30 ga.i./hm^2, visual inspection 30 days after treatment
# [3] = dose 120 ga.i./hm^2, visual inspection 30 days after treatment
smiles,measurement,setting,value
"c1cc[n+]2c(c1)-c1cccc[n+]1CC2 [Diquat, diquat]",Measured Value E (weed control effect),barnyard grass; [1],30% and 20%
same,Measured Value E (weed control effect),barnyard grass; [2],50% and 45% and 40%
same,Measured Value E (weed control effect),barnyard grass; [3],65% and 60% and 55%
same,Measured Value E (weed control effect),piemarker; [1],20% and 15% and 30%
same,Measured Value E (weed control effect),piemarker; [2],50% and 55% and 45%
same,Measured Value E (weed control effect),piemarker; [3],60% and 65% and 55%

# Reference: patent US20220087263A1, “HERBICIDE COMPOSITION AND APPLICATION THEREOF” (SHENYANG SINOCHEM AGROCHEMICALS R&D CO., LTD., priority 2018, published 2022)
